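Five compound concentrations were applied to cells in 96-well plates for 48 hours; endpoints were derived by simple linear interpolation of the resulting dose-response curve. Here, GI50 denotes the concentration required for 50% inhibition of growth. TGI: total growth inhibition.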
How the values were obtained:
Assay in all cases: growth of human tumour cells (NCI), 48 h
CCRF-CEM leukemia = tested on: CCRF-CEM leukemia
HOP-92 NSCLC = tested on: HOP-92 NSCLC
K-562 leukemia = tested on: K-562 leukemia
KM12 colon = tested on: KM12 colon
M14 melanoma = tested on: M14 melanoma
MDA-MB-231 breast = tested on: MDA-MB-231 breast
OVCAR-5 ovarian = tested on: OVCAR-5 ovarian
SK-MEL-5 melanoma = tested on: SK-MEL-5 melanoma
SR leukemia = tested on: SR leukemia
UACC-62 melanoma = tested on: UACC-62 melanoma

| SMILES | GI50 (CCRF-CEM leukemia) | TGI (CCRF-CEM leukemia) | GI50 (HOP-92 NSCLC) | TGI (HOP-92 NSCLC) | GI50 (K-562 leukemia) | TGI (K-562 leukemia) | GI50 (KM12 colon) | TGI (KM12 colon) | GI50 (M14 melanoma) | TGI (M14 melanoma) | GI50 (MDA-MB-231 breast) | TGI (MDA-MB-231 breast) | GI50 (OVCAR-5 ovarian) | TGI (OVCAR-5 ovarian) | GI50 (SK-MEL-5 melanoma) | TGI (SK-MEL-5 melanoma) | GI50 (SR leukemia) | TGI (SR leukemia) | GI50 (UACC-62 melanoma) | TGI (UACC-62 melanoma) |
| --- | --- | --- | --- | --- | --- | --- | --- | --- | --- | --- | --- | --- | --- | --- | --- | --- | --- | --- | --- | --- |
| CN(C)c1ccc(Sc2ccc3nc(N)nc(N)c3c2)cc1 | 0.906 µM | 30.1 µM | 1.32 µM | 5.83 µM | 0.142 µM | 4.55 µM | 1.16 µM | 12.2 µM | 0.363 µM | 2.13 µM | 2.23 µM | 14.1 µM | 1.16 µM | 21 µM | 0.503 µM | 4.78 µM | 0.629 µM | 6.71 µM | 0.519 µM | 5.78 µM |
| N#CC1(C#N)C2C=CC(C3CCC=C32)C1(C#N)C#N (stereo not given) |  | > 7.86 µM |  | > 10 µM |  | > 10 µM |  | > 10 µM |  | > 10 µM |  | > 10 µM |  | > 10 µM |  | > 10 µM |  | > 10 µM |  | > 10 µM |
| COc1cc2c(cc1OC)[C@H]1C(=O)c3cc4c(cc3[C@H]1N(C)C2=O)OCO4 |  | 17 µM |  | > 89.8 µM |  | > 100 µM |  | > 100 µM |  | > 76.6 µM |  | > 100 µM |  | > 100 µM |  | > 48.8 µM |  | > 100 µM |  | > 100 µM |
| O=C(Nc1ccccc1)Nc1ccccc1CNc1nc(Nc2ccc(OCCN3CCCC3)cc2)ncc1Cl | 2.02 µM | 17.8 µM | 2.82 µM | 10.6 µM | 1.67 µM | > 50 µM | 2.15 µM | 7.97 µM | 2.51 µM | 9.79 µM | 1.49 µM | 5.65 µM | 6.6 µM | 13.3 µM | 5.27 µM | 11.9 µM | 1.91 µM | > 50 µM | 3.83 µM | 10.9 µM |
| O=C(CN=Cc1cccs1)CSC(c1ccccc1)c1ccccc1 | 20.8 µM | > 100 µM | 20.7 µM | 51.1 µM | 15.8 µM | 54.1 µM | 21 µM | 52.5 µM | 22 µM | 55.5 µM | 24.5 µM | 95.6 µM | 44.3 µM | > 100 µM | 15.6 µM | 29 µM | 17.1 µM | 54.1 µM | 16.2 µM | 36.9 µM |
| CC(=O)C1=C(O)/C(=C\c2ccco2)OC1=O |  | > 10 µM |  | > 10 µM |  | > 10 µM |  | > 10 µM |  | > 10 µM |  | > 10 µM |  | > 10 µM |  | > 10 µM |  | > 10 µM |  | > 10 µM |
| O=c1[nH]c2cc(O)ccc2n2cc3c(F)cccc3c12 | 2.68 µM | > 100 µM | 3.41 µM | > 100 µM | 0.547 µM | > 100 µM | 1.86 µM | > 100 µM | 1.38 µM | > 100 µM | 6.42 µM | > 100 µM | > 31.3 µM | > 100 µM | 0.348 µM | > 100 µM | 0.509 µM | 28.9 µM | 1.29 µM | > 100 µM |
| CC(C)(C)NCCC(O)c1cc(C(F)(F)F)nc2c(C(F)(F)F)cccc12 (stereo not given) |  | 30.5 µM |  | 26.2 µM |  | 19.9 µM |  | 7.58 µM |  | 19.4 µM |  | 22.8 µM |  | 29.3 µM |  | 25.5 µM |  | 13.5 µM |  | 25.3 µM |
| COc1ccc(N(Cc2cc(OC)c(OC)c(OC)c2)C2OC(=O)c3ccccc32)cc1 (stereo not given) | 0.435 µM | > 100 µM | 0.349 µM | > 100 µM | 0.346 µM | > 100 µM | 0.434 µM | > 36.7 µM | 0.39 µM | > 100 µM | 1.21 µM | > 25.4 µM | 3.53 µM | > 100 µM | 0.474 µM | 53.1 µM | 0.456 µM | > 100 µM | 0.498 µM | > 100 µM |
| CC(=O)Nc1ccc(-n2cnc3cc(-c4ccc(OCCN5CCCCC5)cc4)ccc32)cc1 | 6.57 µM | 23.9 µM | 4.51 µM | 11.6 µM | 0.944 µM | > 33.3 µM | 0.358 µM | 5.76 µM | 5.34 µM | 10.4 µM | 5.33 µM | 13 µM | 6.22 µM | 14.6 µM | 5.22 µM | 9.72 µM | 0.895 µM | 3.74 µM | 6.79 µM | 13 µM |
| CCCCCCN(CCCCCC)CC(O)c1cccc2ccc(Cl)cc12 (stereo not given) | 11.4 µM | 31.7 µM | 3.21 µM | 19.5 µM | 4.87 µM | 20.9 µM | 5.48 µM | 19.6 µM | 9.48 µM | 22 µM | 4.18 µM | 16.2 µM | 2.6 µM | 13.7 µM | 2.12 µM | 5.17 µM | 3.55 µM | 9.85 µM | 8.11 µM | 21.2 µM |
| C=CC[PH+](c1ccccc1)c1ccccc1.C=CC[PH+](c1ccccc1)c1ccccc1.[Cl][Pt][Cl] | 3.6 µM | > 100 µM | 3.27 µM | 12.4 µM | 3.27 µM | 11.9 µM | 15.4 µM | 35.7 µM | 6.35 µM | 22.3 µM | 3.23 µM | 10.3 µM | 13.9 µM | 30.4 µM | 15.8 µM | 30.6 µM | 2.84 µM | 11.7 µM | 5.88 µM | 19.5 µM |
| C=C(CC1(CC(=C)c2ccc(C(=O)O)cc2)C(=O)N(C)C(=O)N(C)C1=O)c1ccc(C(=O)O)cc1 | 65.2 µM | > 100 µM | 78.4 µM | > 100 µM | 35.9 µM | > 100 µM | > 100 µM | > 100 µM | > 100 µM | > 100 µM | > 100 µM | > 100 µM | 43.6 µM | > 100 µM | 73.1 µM | > 100 µM | 23.9 µM | > 100 µM | 42.7 µM | > 100 µM |
| O=c1[nH]c(-c2ccccn2)nc2sc3c(c12)CCCCCC3 | 0.905 µM | > 100 µM | 3.9 µM | > 100 µM | 0.99 µM | > 100 µM | 4.1 µM | > 100 µM | 4.09 µM | > 100 µM | 8.76 µM | > 100 µM | 90.9 µM | > 100 µM | 2.92 µM | > 100 µM | 0.864 µM | > 100 µM | 5.51 µM | > 100 µM |
| Cc1ccc(OCCCCCCNCCO)c(C)c1 | 15.6 µM | 36.7 µM | 2.36 µM | 13.4 µM | 12.2 µM | 31.4 µM | 17.2 µM | 32.4 µM | 16.3 µM | 35.3 µM | 9.11 µM | 25.5 µM | 13.7 µM | 28 µM | 10.4 µM | 22.4 µM | 14.1 µM | 35.5 µM | 12.1 µM | 25.7 µM |
| COc1ccc(N=C2NN=C(c3c[nH]c4ccccc34)CS2)cc1OC | 3.7 µM | > 100 µM | 5.81 µM | > 58.1 µM | 7.67 µM | > 100 µM | 3.05 µM | > 84.2 µM | 4.49 µM | > 100 µM | 8.73 µM | > 100 µM | > 70.6 µM | > 100 µM | 3.6 µM | 23.4 µM | 0.181 µM | > 100 µM | 4.81 µM | > 100 µM |

Source: PubChem BioAssay (NCI)
